Experimental findings from patent US9365572B2, “PI3K and/or mTOR inhibitor” (XUANZHU PHARMA CO., LTD., priority 2012, dated 2016) are described below.

Holding throughout (test): Kinase selectivity, Mobility shift assay
What all share (assay type): biochemical

In one assay the target is AKT1 (Homo sapiens (Human), UniProt P31749). As for the experimental part:
(§1) Object: In this assay, the inhibitory activity of the test substance on the kinases listed in Table 3 was determined, and therefore the selectivity of the present compound was determined.
(§2) Except for the BRAF V600E kinase in Table 3, the Mobility shift assay was used for other kinases.
(§3) 1. Preparation of Agents:
(§4) • 1.1 1-fold kinase buffer without MnCl2: 50 mM HEPES, pH 7.5, 0.0015% Brij-35, 10 mM MgCl2, 2 mM DTT. • 1.2 1-fold kinase buffer with MnCl2: 50 mM HEPES, pH 7.5, 0.0015% Brij-35, 10 mM MgCl2, 10 mM MnCl2, 2 mM DTT. • 1.3 Termination solution: 100 mM HEPES, pH 7.5, 0.0015% Brij-35, 0.2% Coating Reagent#3, 50 mM EDTA. • 1.4 2.5-fold kinase solution: The kinase was added to the 1-fold kinase buffer to form a 2.5-fold kinase solution. • 1.5 2.5-fold substrate solution: FAM fluorescence-labelled polypeptide and ATP were added to the 1-fold kinase buffer to form a 2.5-fold substrate solution. 2. Preparation of 5-fold compound
(§5) The final test concentration of the compound was 10 μM at maximum. Firstly, a 50-fold concentration (i.e. 500 μM) was prepared with 100% DMSO. The compound was diluted with 100% DMSO by 5 folds at 5 concentrations (successively 500 μM, 100 μM, 20 μM, 4 μM, and 0.8 μM). After diluting with 1-fold kinase buffer by 10 folds, 5 μl of the samples were transferred to a 384-well reaction plate. Two negative control wells and two positive control wells were set at each line respectively. Replication was made in a 96-well plate in five concentrations of 5-fold compound. 10% DMSO was added to the positive control well, and 5 μl of EDTA (250 mM) was added to the negative control well.
(§6) • 3.1 To the 384-well reaction plate was added 5-fold compound dissolved in 10% DMSO at 5 μl/well. • 3.2 To the 384-well reaction plate was added 2.5-fold kinase solution at 10 μl/well. The plate was incubated at room temperature for 10 mins. • 3.3 To the 384-well reaction plate was added 2.5-fold substrate solution at 10 μl/well. The plate was incubated at 28° C. for a certain period. • 3.4 25 μl termination solution was added to terminate the reaction. The conversion was read from Caliper. 4. Inhibition rate calculation Inhibition rate (%)=(maximum−sample value)/(maximum−minimum)×100 • wherein: • maximum refers to the conversion at the DMSO control well, • minimum refers to the conversion at the control well without kinase. Lanthascreen Analysis Method for the BRAF V600E Kinase 1. Preparation of Agents: • 1.1 2-fold kinase solution: using 1-fold kinase buffer to prepare 2-fold kinase solution, with a final concentration of 0.35 nM of BRAFV600E; • 1.2 4-fold substrate solution: using 1-fold kinase buffer to prepare 4-fold substrate solution, with a final substrate solution concentration of 0.2 μM of Fluorescein-MAP2K1 and 1.5 μM of ATP. 2. Preparation of 4-fold compound • The final test concentration of the compound was 10 μM at maximum. Firstly, a 100-fold concentration (i.e. 1000 μM) was prepared with 100% DMSO. The compound was diluted with 100% DMSO by 5 folds at 5 concentrations. The compound series was identical to that in the Mobility Shift Assay. After diluting with 1-fold kinase buffer by 25 folds, the resulting samples were shaked and mixed evenly on a plate-shaker for 10 mins. 3. Procedure • 3.1 To the 384-well reaction plate was added 4-fold compound dissolved in 10% DMSO at 2.5 µl/well; • 3.2 To the 384-well reaction plate was added 2-fold kinase solution at 5 μl/well, and to the negative control wells were added 1-fold kinase buffer. The samples were shaked, mixed evenly, and kept standing at room temperature. • 3.3 To the 384-well reaction plate was added 4-fold substrate solution at 2.5 μl/well. The plate was reacted, shaked, mixed evenly and incubated at room temperature for one hour; • 3.4 Reaction result detection: 2-fold detection solution was prepared, with a final concentration of 2 nM of Antibody and 10 mM of EDTA. 10 μl of the detection solution was transferred to the 384-well plate to terminate the reaction. […]

Another assay deals with AMPKa1 (Homo sapiens (Human), UniProt Q13131). As for the experimental part:
as §1, §2, §3, §4, §5, §6

The next assay has as its target AURA (Homo sapiens (Human), UniProt O14965). As for the experimental part: as §1, §2, §3, §4, §5, §6
A further assay deals with CK1d (Homo sapiens (Human), UniProt P48730). As for the experimental part: as §1, §2, §3, §4, §5, §6
The target in another assay is CKIT (Homo sapiens (Human), UniProt P10721). On the procedure:
as §1, §2, §3, §4, §5, §6

In another assay the target is CMET (Homo sapiens (Human), UniProt P08581). On the procedure: as §1, §2, §3, §4, §5, §6
The next assay concerns the target IGF1R (Homo sapiens (Human), UniProt P08069). On the procedure:
as §1, §2, §3, §4, §5, §6

The target in the next assay is KDR (Homo sapiens (Human), UniProt P35968). On the procedure: as §1, §2, §3, §4, §5, §6
A further assay deals with MAPKAPK2 (Homo sapiens (Human), UniProt P49137). On the procedure:
as §1, §2, §3, §4, §5, §6

For another assay, the target named is MARK1 (Homo sapiens (Human), UniProt Q9P0L2). On the procedure:
as §1, §2, §3, §4, §5, §6

The next assay deals with MSK1 (Homo sapiens (Human), UniProt O75582). As for the experimental part:
as §1, §2, §3, §4, §5, §6

A further assay concerns the target MST2 (Homo sapiens (Human), UniProt Q13188). As for the experimental part:
as §1, §2, §3, §4, §5, §6

For the next assay, the target named is P70s6k (Homo sapiens (Human), UniProt P23443). On the procedure: as §1, §2, §3, §4, §5, §6
A further assay deals with PDGFRb (Homo sapiens (Human), UniProt P09619). As for the experimental part:
as §1, §2, §3, §4, §5, §6

In the next assay the target is PDK1 (Homo sapiens (Human), UniProt O15530). As for the experimental part: as §1, §2, §3, §4, §5, §6
In the next assay the target is PKD1 (Homo sapiens (Human), UniProt Q15139). On the procedure:
as §1, §2, §3, §4, §5, §6

The target of a further assay is ROCK2 (Homo sapiens (Human), UniProt O75116). On the procedure:
as §1, §2, §3, §4, §5, §6

Another assay deals with SYK (Homo sapiens (Human), UniProt P43405). As for the experimental part:
as §1, §2, §3, §4, §5, §6

The next assay addresses p38a (Homo sapiens (Human), UniProt Q16539). As for the experimental part: as §1, §2, §3, §4, §5, §6

Sequence of AMPKa1 (Q13131 whole entry): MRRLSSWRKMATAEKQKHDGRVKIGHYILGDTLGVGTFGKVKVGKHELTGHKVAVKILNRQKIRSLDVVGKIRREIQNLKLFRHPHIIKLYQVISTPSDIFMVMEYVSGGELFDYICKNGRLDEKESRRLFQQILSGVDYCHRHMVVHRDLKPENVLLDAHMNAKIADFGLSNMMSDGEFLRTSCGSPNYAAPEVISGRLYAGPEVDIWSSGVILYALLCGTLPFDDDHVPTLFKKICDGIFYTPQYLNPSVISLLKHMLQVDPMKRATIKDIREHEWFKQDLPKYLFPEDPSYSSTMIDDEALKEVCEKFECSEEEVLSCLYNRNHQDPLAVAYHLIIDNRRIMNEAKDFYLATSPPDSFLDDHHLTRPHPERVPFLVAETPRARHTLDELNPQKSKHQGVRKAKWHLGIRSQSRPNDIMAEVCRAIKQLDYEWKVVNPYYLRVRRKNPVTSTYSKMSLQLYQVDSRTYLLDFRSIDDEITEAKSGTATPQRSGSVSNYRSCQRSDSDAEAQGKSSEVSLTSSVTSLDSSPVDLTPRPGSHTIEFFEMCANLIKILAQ
Sequence of AMPKa1 (Q9Y478 whole entry partner): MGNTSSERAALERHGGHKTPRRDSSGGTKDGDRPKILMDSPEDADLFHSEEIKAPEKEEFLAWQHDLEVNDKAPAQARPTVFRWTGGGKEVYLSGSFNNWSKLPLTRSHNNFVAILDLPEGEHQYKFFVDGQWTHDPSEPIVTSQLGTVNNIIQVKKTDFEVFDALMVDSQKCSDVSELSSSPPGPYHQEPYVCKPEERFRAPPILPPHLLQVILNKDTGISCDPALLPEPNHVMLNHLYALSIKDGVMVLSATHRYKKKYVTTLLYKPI
Sequence of AMPKa1 (P54619 whole entry partner): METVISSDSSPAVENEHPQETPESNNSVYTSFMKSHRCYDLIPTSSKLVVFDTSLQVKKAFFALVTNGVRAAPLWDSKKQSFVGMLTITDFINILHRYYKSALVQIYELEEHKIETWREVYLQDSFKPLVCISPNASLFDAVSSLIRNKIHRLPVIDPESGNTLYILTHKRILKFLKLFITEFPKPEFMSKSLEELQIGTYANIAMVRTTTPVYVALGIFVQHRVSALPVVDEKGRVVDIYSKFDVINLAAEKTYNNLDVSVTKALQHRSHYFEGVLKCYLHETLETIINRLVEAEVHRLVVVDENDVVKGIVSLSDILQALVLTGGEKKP
Sequence of MSK1 (O75582 whole entry, species assumed): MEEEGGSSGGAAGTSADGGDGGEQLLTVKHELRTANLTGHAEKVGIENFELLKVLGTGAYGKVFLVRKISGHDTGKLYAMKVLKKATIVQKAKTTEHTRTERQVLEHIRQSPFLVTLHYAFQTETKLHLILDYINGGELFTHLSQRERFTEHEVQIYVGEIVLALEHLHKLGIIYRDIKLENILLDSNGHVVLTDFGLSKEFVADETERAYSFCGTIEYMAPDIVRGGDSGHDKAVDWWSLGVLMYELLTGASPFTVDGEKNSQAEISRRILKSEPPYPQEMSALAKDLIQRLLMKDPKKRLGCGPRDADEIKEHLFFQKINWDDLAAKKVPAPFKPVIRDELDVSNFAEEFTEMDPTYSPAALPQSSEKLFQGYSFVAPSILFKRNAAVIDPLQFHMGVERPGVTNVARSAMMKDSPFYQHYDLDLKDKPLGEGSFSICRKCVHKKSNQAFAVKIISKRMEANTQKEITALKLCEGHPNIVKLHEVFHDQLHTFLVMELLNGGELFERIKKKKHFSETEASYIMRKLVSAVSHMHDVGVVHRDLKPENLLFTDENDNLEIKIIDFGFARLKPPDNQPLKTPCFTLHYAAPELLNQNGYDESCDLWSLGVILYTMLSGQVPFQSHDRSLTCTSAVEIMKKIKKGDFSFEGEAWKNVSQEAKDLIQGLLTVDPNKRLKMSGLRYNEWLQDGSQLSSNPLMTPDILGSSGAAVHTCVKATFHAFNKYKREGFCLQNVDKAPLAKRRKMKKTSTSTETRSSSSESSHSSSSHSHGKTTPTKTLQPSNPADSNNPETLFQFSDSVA
Sequence of ROCK2 (O75116 whole entry, species assumed): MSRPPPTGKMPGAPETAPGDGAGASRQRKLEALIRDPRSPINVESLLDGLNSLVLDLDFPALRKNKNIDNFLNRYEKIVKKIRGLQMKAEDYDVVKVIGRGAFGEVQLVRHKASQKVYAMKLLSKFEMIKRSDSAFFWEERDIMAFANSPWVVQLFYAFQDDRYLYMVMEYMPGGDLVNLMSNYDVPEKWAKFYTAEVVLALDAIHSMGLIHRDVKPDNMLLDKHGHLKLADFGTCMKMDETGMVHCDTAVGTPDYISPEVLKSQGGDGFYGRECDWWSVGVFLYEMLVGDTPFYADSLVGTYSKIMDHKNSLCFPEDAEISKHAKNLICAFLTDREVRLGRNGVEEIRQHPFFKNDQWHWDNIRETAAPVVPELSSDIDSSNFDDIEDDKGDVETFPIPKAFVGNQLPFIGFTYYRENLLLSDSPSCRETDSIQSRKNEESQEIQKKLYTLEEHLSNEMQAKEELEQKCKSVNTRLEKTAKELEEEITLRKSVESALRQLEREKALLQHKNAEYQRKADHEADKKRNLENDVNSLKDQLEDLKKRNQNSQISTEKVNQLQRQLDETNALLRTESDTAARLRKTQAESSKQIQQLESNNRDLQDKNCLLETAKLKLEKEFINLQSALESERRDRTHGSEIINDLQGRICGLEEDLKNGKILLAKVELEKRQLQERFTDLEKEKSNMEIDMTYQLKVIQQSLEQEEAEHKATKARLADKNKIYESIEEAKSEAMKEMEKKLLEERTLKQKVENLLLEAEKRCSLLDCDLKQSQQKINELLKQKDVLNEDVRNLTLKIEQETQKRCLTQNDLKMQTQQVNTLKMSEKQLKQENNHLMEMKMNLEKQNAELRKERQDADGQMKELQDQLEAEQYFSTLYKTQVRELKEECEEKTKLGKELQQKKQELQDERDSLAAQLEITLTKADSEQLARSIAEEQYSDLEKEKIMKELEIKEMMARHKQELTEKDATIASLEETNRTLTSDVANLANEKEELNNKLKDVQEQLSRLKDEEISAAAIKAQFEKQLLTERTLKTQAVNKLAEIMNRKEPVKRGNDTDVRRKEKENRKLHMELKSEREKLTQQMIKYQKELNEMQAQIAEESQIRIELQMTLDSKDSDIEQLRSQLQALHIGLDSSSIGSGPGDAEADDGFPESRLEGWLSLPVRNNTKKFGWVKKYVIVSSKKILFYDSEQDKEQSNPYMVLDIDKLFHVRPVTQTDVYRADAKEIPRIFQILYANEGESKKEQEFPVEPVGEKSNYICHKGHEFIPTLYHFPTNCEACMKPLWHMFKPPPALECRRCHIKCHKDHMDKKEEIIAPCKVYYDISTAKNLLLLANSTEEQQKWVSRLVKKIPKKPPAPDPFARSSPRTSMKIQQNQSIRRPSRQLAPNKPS
Sequence of IGF1R (P08069 31-1367, species assumed): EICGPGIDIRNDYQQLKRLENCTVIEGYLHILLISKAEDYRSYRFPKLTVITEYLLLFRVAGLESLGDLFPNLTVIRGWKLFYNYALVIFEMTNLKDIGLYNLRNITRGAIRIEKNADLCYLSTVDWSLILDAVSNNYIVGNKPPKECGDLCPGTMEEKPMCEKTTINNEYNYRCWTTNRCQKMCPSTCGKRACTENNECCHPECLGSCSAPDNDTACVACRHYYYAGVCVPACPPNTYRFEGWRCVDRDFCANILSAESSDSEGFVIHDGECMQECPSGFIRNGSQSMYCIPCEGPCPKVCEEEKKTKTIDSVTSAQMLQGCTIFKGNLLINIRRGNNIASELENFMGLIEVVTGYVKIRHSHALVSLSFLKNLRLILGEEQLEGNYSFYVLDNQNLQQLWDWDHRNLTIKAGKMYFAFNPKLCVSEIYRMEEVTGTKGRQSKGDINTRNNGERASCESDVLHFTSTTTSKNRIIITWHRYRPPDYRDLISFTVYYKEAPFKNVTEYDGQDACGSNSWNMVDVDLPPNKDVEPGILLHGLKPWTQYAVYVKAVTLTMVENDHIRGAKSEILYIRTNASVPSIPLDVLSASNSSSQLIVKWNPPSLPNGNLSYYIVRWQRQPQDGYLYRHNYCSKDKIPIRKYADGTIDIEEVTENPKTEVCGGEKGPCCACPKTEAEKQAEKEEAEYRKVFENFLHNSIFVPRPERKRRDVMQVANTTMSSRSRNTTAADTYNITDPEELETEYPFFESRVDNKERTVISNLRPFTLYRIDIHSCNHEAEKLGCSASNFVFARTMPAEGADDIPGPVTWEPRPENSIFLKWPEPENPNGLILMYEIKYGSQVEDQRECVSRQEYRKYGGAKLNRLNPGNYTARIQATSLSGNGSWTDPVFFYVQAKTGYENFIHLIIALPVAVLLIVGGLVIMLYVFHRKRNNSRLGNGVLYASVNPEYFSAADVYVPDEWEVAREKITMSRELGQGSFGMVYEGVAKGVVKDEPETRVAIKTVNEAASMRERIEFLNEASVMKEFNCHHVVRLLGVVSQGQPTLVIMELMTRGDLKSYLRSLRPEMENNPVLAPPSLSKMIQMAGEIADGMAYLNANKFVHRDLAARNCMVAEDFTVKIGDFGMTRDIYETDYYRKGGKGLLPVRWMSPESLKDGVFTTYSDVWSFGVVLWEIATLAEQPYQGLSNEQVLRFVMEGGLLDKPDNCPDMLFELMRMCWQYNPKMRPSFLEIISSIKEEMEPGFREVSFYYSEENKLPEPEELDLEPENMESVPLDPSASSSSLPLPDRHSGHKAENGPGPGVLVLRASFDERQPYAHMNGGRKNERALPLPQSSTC
Sequence of p38a (Q16539 whole entry): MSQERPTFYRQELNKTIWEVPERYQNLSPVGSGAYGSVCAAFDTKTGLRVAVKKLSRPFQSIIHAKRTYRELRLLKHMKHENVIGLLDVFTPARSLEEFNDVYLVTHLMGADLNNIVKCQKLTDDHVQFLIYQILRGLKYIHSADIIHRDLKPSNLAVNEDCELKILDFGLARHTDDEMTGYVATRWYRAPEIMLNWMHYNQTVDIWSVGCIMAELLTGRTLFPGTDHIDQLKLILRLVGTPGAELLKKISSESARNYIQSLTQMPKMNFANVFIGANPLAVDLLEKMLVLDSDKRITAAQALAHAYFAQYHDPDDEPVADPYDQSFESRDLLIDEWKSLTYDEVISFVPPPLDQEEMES

As for `Nc1ccc(-c2ccc3ncc4c(=O)[nH]c(=O)n(-c5cccc(C(F)(F)F)c5)c4c3n2)cn1` [Compound 5, 9-(6-aminopyridin-3-yl)-1-(3-(trifluoromethyl)phenyl)pyrimido[5,4-c][1,5]naphthyridine-2,4(1H,3H)-dione], the half-maximal inhibitory concentration (IC50) at AKT1, on AMPKa1, at AURA, on CK1d, on CKIT and on CMET was over 10000 nM in each case. The IC50 at IGF1R, at KDR, at MAPKAPK2, at MARK1, on MSK1 and on MST2 was over 10000 nM each time. The IC50 on P70s6k is over 10000 nM; on PDGFRb, over 10000 nM; on PDK1, over 10000 nM; at PKD1, 2410 nM; at ROCK2, over 10000 nM; at SYK, over 10000 nM. Moreover, the IC50 at p38a was over 10000 nM.

As usually defined, the IC50 is the point on the concentration scale where inhibition reaches its midpoint.
